Experimental data reported in patent publication US4312813A, “Bisquaternary ammonium compound” (Johnson & Johnson Baby Products Company, priority 1980, dated 1982).

Experiments:
[1] = tested on: Trichophyton mentagrophytes; assay: Minimum Inhibiting Concentration test; format: cell-based; conditions: fungi, 25° C., 1 month
Description: (§1) First, 200 mg. each of the compounds, AA, CC, GG, II and MM are placed in 100 ml. of a 10% ethyl alcohol solution resulting in a concentration of 2.00 mg/ml. and then 11 serial two fold dilutions are made to a final concentration of […]. Thus, a range of concentrations of from 0.0001 mg/ml. to 2.00 mg/ml. are prepared. Separately, 1000 ml. of a standard Antibiotic Medium #3 is innoculated with 1 ml. of a 24 hour broth culture of each of the test organisms and the resulting solutions are dispersed in 2 ml. portions into 13 mm×100 mm test tubes at 4° C. Two test tubes for each of the test organisms are prepared.
(§2) Then, 0.4 ml. of each concentration of the compound to be tested is placed in each of the test tubes, which are then shaken and placed at a temperature of 35° C. for a period of 18 hours for bacteria, 25° C. for a period of 3 days for yeast, and 25° C. for a period of 1 month for fungi. The end point of the activity is determined by streaking utilizing a calibrated loop to Trypticase Soy Agar to determine the last tube (concentration) with growth and the next greatest concentration.

[2] = tested on: Proteus mirabilis; assay: Minimum Inhibiting Concentration test; format: cell-based; conditions: 35° C., 18 hours
Description: as §1, §2

[3] = tested on: Epidermophyton flocossum; assay: Minimum Inhibiting Concentration test; format: cell-based; conditions: fungi, 25° C., 1 month
Description: as §1, §2

[4] = tested on: Escherichia coli; assay: Minimum Inhibiting Concentration test; format: cell-based; conditions: 35° C., 18 hours
Description: as §1, §2

[5] = tested on: Proteus vulgaris; assay: Minimum Inhibiting Concentration test; format: cell-based; conditions: 35° C., 18 hours
Description: as §1, §2

[6] = tested on: Staphylococcus aureos; assay: Minimum Inhibiting Concentration test; format: cell-based; conditions: 35° C., 18 hours
Description: as §1, §2

[7] = tested on: Candida albicans; assay: Minimum Inhibiting Concentration test; format: cell-based; conditions: yeast, 25° C., 3 days; for MIC: 72 h
Description: as §1, §2

[8] = tested on: Aspergillus niger; assay: Minimum Inhibiting Concentration test; format: cell-based; conditions: fungi, 25° C., 1 month
Description: as §1, §2

[9] = tested on: Staphylococcus epidermis; assay: Minimum Inhibiting Concentration test; format: cell-based; conditions: 35° C., 18 hours
Description: as §1, §2

[10] = tested on: Pseudomonas aeruginosa; assay: Minimum Inhibiting Concentration test; format: cell-based; conditions: 35° C., 18 hours
Description: as §1, §2

[11] = tested on: Staphylococcus pyogenes; assay: Minimum Inhibiting Concentration test; format: cell-based; conditions: 35° C., 18 hours; for MIC: Staphylococcus aureus
Description: as §1, §2

[12] = hair fly-away: electrostatic charge of brushed hair tresses (Faraday pail, electrometer); conditions: one percent aqueous solutions; hair tresses brushed or combed 20 strokes
Description: To test the hair fly-away characteristics of the novel bisquaternary ammonium compounds of the present invention, the following test procedure can be utilized.
The hair to be utilized is formed into six inch long, 1.5 gram weight tresses, cleaned with methanol first, then with a 1% solution of sodium lauryl sulfate followed by a rinse with distilled water. The tress is then dried in an oven at 55° C. The tresses except for the controls are then treated with the test compounds and redried at 55° C.
An electrometer (Electrometer Model 610C, Keithley Instrument Co., Cleveland, Ohio) to serve as a coulomb meter for direct measurement of charge is attached to a Faraday pail and switched on.
The test tresses are singly taken out of the drying oven, held at the tied end and brushed or combed twenty strokes alternating between front and back side of the tress as held by the operator. A clean brush or comb is utilized and the velocity with which the brush or comb is traversed through the tress is maintained constant as much as possible. Further, since the electrostatic charges are capable of being quickly dissipated into the atmosphere, the procedure consists of uniformly brushing or combing 20 strokes in a period of 10 seconds and immediately following the last stroke, the lid of the Faraday cage is opened and the tress is dropped into the Faraday pail without contacting any other object and the lid is replaced. The charge in coulombs is read from the electrometer and the tress is then removed from the Faraday pail and the instrument is reset for the next tress sample.
Since electrostatic charge buildup creates fly-away in atmospheres of low humidity, these compounds are useful to prevent said fly-away condition.

[13] = tested on: rabbit eye; assay: modified Draize Test, ocular irritation; format: in vivo; conditions: 3.50% of compound in shampoo composition; 0.1 ml per eye, albino rabbit; control shampoo rated Severe Irritant
Description: The bisquaternary ammonium compounds of the present invention can be tested for ocular irritation by the following modified Draize Test (J. H. Draize et al., Toilet Goods Assn. No. 17, May 1952, No. 1, Proc. Sci. Sect.).
An 0.1 ml. sample of a neutral composition under test is dropped into one eye of an albino rabbit, the other eye serving as a control. Six rabbits are employed for each composition. Observations are made after 1, 24, 48, 72 and 96 hours and 7 days after initial instillation; second and third instillations are made after the 24 and 48 hour readings. Results may vary from substantially no change or only a slight irritation in the appearance of the rabbit's eye after 7 days to severe irritation and/or complete corneal opacity. Ocular lesions are scored for the cornea, iris and conjunctiva with a higher number indicating greater ocular irritation and the scores are added to give a total numerical value for each reading for six rabbits and averaged. The averaged score is an indication of the irritation potential of the composition under test. Based on the averaged score, descriptive irritation evaluation may be given, e.g., none, slight, moderate, severe, as the case may be.
A shampoo composition is prepared consisting of the following ingredients:
This formulation serves as a control with three additional formulations being made with the only difference being that in each of said formulations 3.50% of distilled water is replaced with 3.50% of compound JJ, KK and LL respectively. These formulations are then tested in accordance with the above procedure and the results are shown below in Table I.

**Q.** For C=CCCCCCCCCC(=O)NCCC[N+](C)(C)CCCC[N+](C)(C)CCCNC(=O)CCCCCCCCC=C [AA, N,N'-undecenylamidopropyl-N,N,N',N'-tetramethyl-1,-4-butylene diammonium bromide], which MIC [1] is on record?
**A.** The MIC was 16 µg/mL.

**Q.** And the MIC [2]?
**A.** Its MIC is less than 2000 µg/mL.

**Q.** What about the MIC [3] of the same compound?
**A.** Its MIC is 125 µg/mL.

**Q.** And the MIC [4]?
**A.** Its MIC is 125 µg/mL.

**Q.** And the MIC [5]?
**A.** Its MIC is 250 µg/mL.

**Q.** And the MIC [6]?
**A.** The MIC was 125 µg/mL.

**Q.** What about the MIC [7] of the same compound?
**A.** The MIC was 250 µg/mL.

**Q.** And the MIC [8]?
**A.** The MIC was 250 µg/mL.

**Q.** What about the MIC [9] of the same compound?
**A.** The MIC was 62.5 µg/mL.

**Q.** And the MIC [10]?
**A.** The MIC was 1000 µg/mL.

**Q.** And the MIC [11]?
**A.** The MIC was 500 µg/mL.

**Q.** Which MIC [1] does the source give for CCCCCCCCCCCC(=O)NCCC[N+](C)(C)CCOCC[N+](C)(C)CCCNC(=O)CCCCCCCCCCC [CC, N,N'-di(lauramidopropyl)-N,-N,N',N'-tetramethyl-1,5(3-oxapentylene) diammonium bromide] here?
**A.** The MIC was 16 µg/mL.

**Q.** And the MIC [2]?
**A.** The MIC was less than 2000 µg/mL.

**Q.** What about the MIC [3] of the same compound?
**A.** The MIC was 62.5 µg/mL.

**Q.** And the MIC [4]?
**A.** The MIC was 125 µg/mL.

**Q.** What about the MIC [5] of the same compound?
**A.** The MIC was less than 2000 µg/mL.

**Q.** And the MIC [6]?
**A.** Its MIC is 250 µg/mL.

**Q.** And the MIC [7]?
**A.** Its MIC is 63 µg/mL.

**Q.** What about the MIC [8] of the same compound?
**A.** Its MIC is 125 µg/mL.

**Q.** And the MIC [9]?
**A.** The MIC was 125 µg/mL.

**Q.** What about the MIC [10] of the same compound?
**A.** Its MIC is 250 µg/mL.

**Q.** And the MIC [11]?
**A.** Its MIC is 250 µg/mL.

**Q.** What about the “charge reduction compared to the control” value [12] of the same compound?
**A.** The value was “greater than 95%”.

**Q.** With CCCCCCCCCCCCCCCCCC(=O)NCC[N+](CC)(CC)CCOCC[N+](CC)(CC)CCNC(=O)CCCCCCCCCCCCCCCCC [GG, N,N'-di(stearamidoethyl)-N,N,N',N'-tetraethyl-1,5(3-oxapentylene)diammonium dibromide] as the compound, how does the MIC [1] read?
**A.** The MIC was 16 µg/mL.

**Q.** What about the MIC [2] of the same compound?
**A.** The MIC was less than 2000 µg/mL.

**Q.** And the MIC [3]?
**A.** Its MIC is 250 µg/mL.

**Q.** And the MIC [4]?
**A.** The MIC was 1000 µg/mL.

**Q.** What about the MIC [5] of the same compound?
**A.** Its MIC is less than 2000 µg/mL.

**Q.** And the MIC [6]?
**A.** The MIC was 625 µg/mL.

**Q.** And the MIC [7]?
**A.** The MIC was 31 µg/mL.

**Q.** And the MIC [8]?
**A.** The MIC was 250 µg/mL.

**Q.** And the MIC [9]?
**A.** The MIC was 62.5 µg/mL.

**Q.** What about the MIC [10] of the same compound?
**A.** Its MIC is less than 2000 µg/mL.

**Q.** What about the MIC [11] of the same compound?
**A.** The MIC was less than 2000 µg/mL.

**Q.** Which ocular irritation rating [13] does the source give for CCCCCCCCCCCCCCCCCCCCCC(=O)NCCC[N+](C)(C)CCOCC[N+](C)(C)CCCNC(=O)CCCCCCCCCCCCCCCCCCCCC [KK, N,N'-di(docosamidopropyl)-N,N,N',N'-tetramethyl-1,5(3-oxapentylene)diammonium dibromide] here?
**A.** The ocular irritation rating was “Slight-Moderate Irritant”.

**Q.** What does the source list for CCCCCCCCCCCCCCCCCCCCCC(=O)NCCC[N+](C)(C)CCOCCOCCOCCOCCOCCOCCOCCOCCOCCOCCOCCOCC[N+](C)(C)CCCNC(=O)CCCCCCCCCCCCCCCCCCCCC.[Br-].[Br-] [LL, N,N'-di(docosamidopropyl)-N,N,N',N'-tetramethyl-1,38(3,6,9,12,15,18,21,24,-27,30,33,36-dodeca-oxaoctatricontylene)diammonium dibromide]?
**A.** ocular irritation rating [13]: Slight-Moderate Irritant; charge reduction compared to the control [12]: greater than 95%

**Q.** Which minimum inhibiting concentration [1] does the source give for “N,N'-di(octadidecenamidopropyl)-N,N,N',N'-tetramethyl-1,20 (2,5,8,11,14,17,20-heptamethyl-3,6-9,12,15,18-hexaoxaeicosylene) diammonium dibromide [II]” here?
**A.** Its minimum inhibiting concentration is 31 µg/mL.

**Q.** And the minimum inhibiting concentration [2]?
**A.** The minimum inhibiting concentration was less than 2000 µg/mL.

**Q.** And the minimum inhibiting concentration [3]?
**A.** The minimum inhibiting concentration was 500 µg/mL.

**Q.** What about the minimum inhibiting concentration [4] of the same compound?
**A.** Its minimum inhibiting concentration is 500 µg/mL.

**Q.** And the minimum inhibiting concentration [5]?
**A.** The minimum inhibiting concentration was less than 2000 µg/mL.

**Q.** And the minimum inhibiting concentration [6]?
**A.** Its minimum inhibiting concentration is 2000 µg/mL.

**Q.** And the minimum inhibiting concentration [7]?
**A.** Its minimum inhibiting concentration is 250 µg/mL.

**Q.** What about the minimum inhibiting concentration [8] of the same compound?
**A.** The minimum inhibiting concentration was 500 µg/mL.

**Q.** And the minimum inhibiting concentration [9]?
**A.** Its minimum inhibiting concentration is 1000 µg/mL.

**Q.** And the minimum inhibiting concentration [10]?
**A.** The minimum inhibiting concentration was 2000 µg/mL.

**Q.** And the minimum inhibiting concentration [11]?
**A.** Its minimum inhibiting concentration is less than 2000 µg/mL.

**Q.** Which ocular irritation rating [13] does the source give for “N,N'-di(octatridecenamidopropyl)-N,N,N',N'-tetramethyl-1,5(3-oxapentylene)-diammonium dibromide [JJ]” here?
**A.** The ocular irritation rating was “Slight Irritant”.

**Q.** What about the “charge reduction compared to the control” value [12] of the same compound?
**A.** Its value is “greater than 95%”.
